Values after ≈ are worked out from the molar mass of the structure shown.
Experiments:
[1] = system: participants with treatment-resistant depression (TRD); assay: Clinical Global Impression - Improvement scale (CGI-I), same study; assay type: in vivo, human; settings: 25 mg + SSRI, N = 19
[2] = system: participants with treatment-resistant depression (TRD); assay: Clinical Global Impression - Severity scale (CGI-S), same study; assay type: in vivo, human; settings: for CGI-S Responders: 25 mg + SSRI, N = 19
Protocol: (§1) Additional objectives of this study are to assess the efficacy of psilocybin […] on the: • (a) proportion of subjects with response defined as a ≥50% decrease in MADRS total score from baseline to week 3. • (b) proportion of subjects with remission (defined as a MADRS total score ≤10) at week 3 post psilocybin administration. • (c) changes from baseline Clinical Global Impression-Severity scale (CGI-S) at week 3 post psilocybin administration.

[3] = system: participants with treatment-resistant depression (TRD); assay: Safety: treatment emergent adverse events (TEAE), same study; assay type: in vivo, human
Source text: Another objective is to evaluate the safety and tolerability of psilocybin in subjects with TRD based on AEs, changes in vital signs, and suicidal ideation/behaviour (measured using the Columbia-Suicide Severity Rating Scale [C-SSRS]) score at all visits.
Throughout the course of the study, all adverse events (AEs) will be monitored and recorded and will include the AE's description, start and end date, seriousness, severity, action taken, and relationship to the treatment. If AEs occur, the first concern will be the safety of the study subjects.
An AE can therefore be any unfavorable and unintended sign (including an abnormal laboratory finding, for example), symptom, or disease temporally associated with the use of a medicinal product, whether considered related to the medicinal product.
AEs will be coded by Preferred Term (PT) using the Medical Dictionary for Regulatory Activities (MedDRA) classification. All reported AEs with onset or worsening after the administration of study medication will be included in the analysis. The incidence of AEs will be summarized by treatment group, and by severity and relationship to psilocybin. Serious AEs and AEs leading to withdrawal from the study will be tabulated.
A TEAE is defined as any AE that has an onset on or after the dose of psilocybin, or any pre-existing condition that has worsened on or after the dose of psilocybin.
The incidence of TEAEs and treatment-related AEs will also be summarized by maximum severity and most-related relationship to psilocybin by MedDRA primary system organ class and PT. The summary will include the total number and percentage of subjects reporting an event.

[4] = system: participants with treatment-resistant depression (TRD); assay: Montgomery-Asberg Depression Rating Scale (MADRS), Phase IIb open-label study of psilocybin adjunct to SSRI; assay type: in vivo, human; settings: for MADRS total score, Mean (SD) / MADRS Remitters (MADRS total score ≤10) / MADRS Responders (≥50% decrease in MADRS total score from baseline) / MADRS total score, Change from baseline Mean (SD): 25 mg + SSRI, N = 19
Protocol: The effectiveness of 25 mg COMP360 as an adjunctive therapy in participants with TRD was explored.
The study was a Phase IIb, international multicentre, fixed-dose, open-label study. The study population included adult men and women, 18 years of age or older, with TRD. […] The duration of the current episode must be at least 3 months but not more than 2 years.
The psilocybin administration session (V3, day 1) will last approximately 6 h and will be supported by a trained therapist. The study drug will be administered simultaneously to up to six participants. Blood pressure will be monitored continuously during the session. The COMP360 administration session may be video recorded for training and adherence monitoring. After the acute effects of psilocybin pass, participants will be evaluated for safety and accompanied home. On day 2 (V4), the day following psilocybin administration, participants will be seen in person for a safety check, assessment of suicidality and clinical and self-report assessments, and to discuss their experience during the psilocybin administration session. All sessions between the therapist and the participant may be audio recorded for adherence monitoring and quality assurance.
The primary objective of this study is to evaluate the efficacy of 25 mg of psilocybin adjunct to serotonergic antidepressants in TRD participants, as assessed by the change in the Montgomery-Asberg Depression Rating Scale (MADRS) total score from baseline. Baseline is defined as the assessment score obtained on Day −1. The primary time point is week 3.
as §1

[5] = week 3, single 25 mg dose adjunct to SSRI
[6] = 25 mg adjunct to SSRI, 19 patients
[7] = on the day of dosing or the day after
[8] = severity mild, 25 mg + SSRI, N = 19
[9] = severity moderate, 25 mg + SSRI, N = 19

With CN(C)CCc1c[nH]c2cccc(OP(=O)(O)O)c12 [COMP360, psilocybin] the “CGI-I Responders” value ([1]; Day 2) was 11 (57.9) n (%), the “CGI-I Responders” value ([1]; Week 1) was 12 (63.2) n (%) and the “CGI-I Responders” value ([1]; Week 2) was 8 (42.1) n (%). For the same compound, the “CGI-I Responders” value ([1]; Week 3) was 7 (36.8) n (%), the solubility (Solubility in water) was ~15 mg/mL (≈ 52.8 mM) and the “CGI-S Responders” value ([2]; Day 2) was 8 (42.1) n (%). The “CGI-S Responders” value ([2]; Week 1) was 12 (63.2) n (%), the “CGI-S Responders” value ([2]; Week 2) was 11 (57.9) n (%) and the “CGI-S Responders” value ([2]; Week 3) was 10 (52.6) n (%). The “average CGI-S score” value ([2]; baseline ("moderately ill")) was 4, the “average CGI-S score” value ([2]; week 3 ("mildly ill"), single 25 mg dose adjunct to SSRI) was 3 and the “proportion of participants who were CGI-S responders” value [2, 5] was 52.6%. For the same compound, the “TEAEs classed as serious (TESAEs)” value [3, 6] was “no TEAEs classed as serious”, the “TEAEs related to suicidal ideation or behaviour or intentional self-injury” value [3, 6] was “no TEAEs related to suicidal ideation or behaviour or intentional self-injury” and the tolerability [3, 6] was “generally well tolerated”. For the same compound, the “resolution of headache TEAE” value ([3]; all cases) was “all cases resolved in one or two days”, the “most common TEAE headache, events” value [3, 7] was 6 events and the “most common TEAE headache, participants” value [3, 7] was 6 participants. For the same compound, the “TEAE Blood pressure increase” value [3, 8] was 1 (5.3) n (%), the “TEAE Diarrhoea” value [3, 8] was 1 (5.3) n (%) and the “TEAE Dizziness” value [3, 8] was 1 (5.3) n (%). The “TEAE Dry mouth” value [3, 8] was 1 (5.3) n (%), the “TEAE Fall” value [3, 8] was 1 (5.3) n (%) and the “TEAE Headache” value [3, 8] was 5 (26.3) n (%). For the same compound, the “TEAE Palpitations” value [3, 8] was 1 (5.3) n (%), the “TEAE Skin abrasion” value [3, 8] was 1 (5.3) n (%) and the “TEAE Vertigo” value [3, 8] was 1 (5.3) n (%). The “TEAE Depression” value [3, 9] was 1 (5.3) n (%), the “TEAE Headache” value [3, 9] was 1 (5.3) n (%) and the “TEAE Hypertension” value ([3]; severity severe, 25 mg + SSRI, N = 19) was 1 (5.3) n (%). The “MADRS total score, Mean (SD)” value ([4]; Baseline (before dosing)) was 31.7 (5.77), the “MADRS Remitters (MADRS total score ≤10)” value ([4]; Day 2) was 10 (52.6) n (%) and the “MADRS Responders (≥50% decrease in MADRS total score from baseline)” value ([4]; Day 2) was 12 (63.2) n (%). The “MADRS total score, Change from baseline Mean (SD)” value (“MADRS total score, Change … (SD)” for short) ([4]; Day 2) was −18.3 (11.85), the “MADRS total score, Mean (SD)” value ([4]; Day 2) was 13.4 (12.92) and the “MADRS Remitters (MADRS total score ≤10)” value ([4]; Week 1) was 9 (47.4) n (%). The “MADRS Responders (≥50% decrease in MADRS total score from baseline)” value ([4]; Week 1) was 11 (57.9) n (%), the “MADRS total score, Change … (SD)” value ([4]; Week 1) was −17.1 (11.29) and the “MADRS total score, Mean (SD)” value ([4]; Week 1) was 14.6 (11.88). The “MADRS Remitters (MADRS total score ≤10)” value ([4]; Week 2) was 8 (42.1) n (%), the “MADRS Responders (≥50% decrease in MADRS total score from baseline)” value ([4]; Week 2) was 11 (57.9) n (%) and the “MADRS total score, Change … (SD)” value ([4]; Week 2) was −15.7 (12.02). The “MADRS total score, Mean (SD)” value ([4]; Week 2) was 16.0 (11.70), the “MADRS Remitters (MADRS total score ≤10)” value ([4]; Week 3) was 8 (42.1) n (%) and the “MADRS Responders (≥50% decrease in MADRS total score from baseline)” value ([4]; Week 3) was 8 (42.1) n (%). The “MADRS total score, Change … (SD)” value ([4]; Week 3) was −14.9 (11.97), the “MADRS total score, Mean (SD)” value ([4]; Week 3) was 16.8 (11.62) and the “proportion of participants who were MADRS remitters” value ([4]; by week 3, single 25 mg dose adjunct to SSRI) was ~ 42%. The “proportion of participants who were MADRS responders” value [4, 5] was ~ 42% and the “average reduction in MADRS total score from baseline” value ([4]; week 3, single 25 mg dose adjunct to SSRI, 19 patients) was 14.9.
